Measured values as given in patent publication US20230240297A1, “SELECTIVE HERBICIDES BASED ON SUBSTITUTED ISOXAZOLIN CARBOXAMIDES AND CYPROSULFAMIDE” (Bayer Aktiengesellschaft, priority 2020, published 2023).

Columns and labels:
Format in all cases: in vivo, maize
ZEAMA Abraxas = assay: Tank-mix; post-emergence, crop damage with and without safener; conditions: for HER effect + SAF / HER effect: Final assessment; for HER effect: no safener
Method: (§1) Seeds of crops (spring wheat, TRZAS; spring barley, HORVS; maize, ZEAMA) were placed in sandy loam soil in peat pots, covered with soil and cultivated in a greenhouse under good growth conditions. Two to three weeks after sowing, the test plants were treated at the 1 to 3-leaf stage. The herbicide/safener active compound combinations according to the invention, formulated as wettable powders or emulsion concentrates, and, in parallel tests, the correspondingly formulated individual active compounds were sprayed onto the green parts of the plants in various dosages using an amount of water of 300 1/ha (converted).
(§2) The pots were returned under good growing conditions in a glasshouse and a visual assessment of herbicidal effects was made at intervals from 1 to 3 weeks after herbicide application (DAT = days after treatment). Assessment was on a percentage basis in comparison with untreated control plants (0% = no injury, 100% = complete kill).

ZEAMA Sileno [1] = assay: Seed treatment with safener; post-emergence herbicide application; parameters: Reduction [Difference]: scale not given here; conditions: Final assessment; for Reduction [%] / Reduction [Difference]: Cyprosulfamide 0.5 g a.i./kg seed; for Reduction [Difference]: damage without safener - damage with safener; for HER effect + SAF (crop damage with safener): Cyprosulfamide seed treatment 0.5 g a.i./kg seed; for HER effect (crop damage, herbicide without safener): no safener
Method: For the safener seed treatment, sufficient seeds of the respective crops (spring wheat, TRZAS; spring barley, HORVS; maize, ZEAMA) were weighed into screw top glass bottles approximately twice the volume of the seeds.
The specified safeners, formulated as wettable powder (WP) were weighed out so that the specified rates (g a.i./kg seed) would be obtained, dissolved in water (1 ml water per 10 g of seeds), and added to the seeds to produce a slurry.
The bottles were capped and then placed in an overhead shaker (set at medium speed for ca. 60 minutes) so that the seeds were evenly coated with the slurry. The bottles were uncapped and the seeds were either placed on paper and dried for an interval of 3-4 hours prior to sowing, or directly sown. Seeds were placed in sandy loam soil in pots of a diameter of 7-8 cm, covered with soil, and cultivated in a greenhouse under good growth conditions.
Post-emergence application of the specified herbicides was done when the plants had reached growth stage BBCH11-13, on two sets of plants:
a) seed treatment with safener, as described above b) no safener treatment
The herbicides were formulated as WP and sprayed onto the green parts of the plants as an aqueous suspension at an equivalent water application rate of 300 1/ha, with addition of wetting agent and adjuvants (e.g. Mero, 1.5 1/ha; ammonium sulphate, 2 kg/ha)
After application, the test plants were kept in the greenhouse under good growth conditions.
Values in the table below are mean values of at least 2 replicates.

ZEAMA Sileno [2] = assay: Tank-mix; post-emergence, crop damage with and without safener; conditions: for HER effect + SAF / HER effect: Final assessment; for HER effect: no safener
Method: as §1, §2

[3] = HER 32 g a.i./ha, cyprosulfamide 100 g a.i./ha
[4] = HER dose 32 g a.i./ha + cyprosulfamide 100 g a.i./ha tank-mix
[5] = HER 8 g a.i./ha, cyprosulfamide 50 g a.i./ha
[6] = HER dose 8 g a.i./ha + cyprosulfamide 50 g a.i./ha tank-mix
[7] = HER 2 g a.i./ha, cyprosulfamide 50 g a.i./ha
[8] = HER 2 g a.i./ha, cyprosulfamide 50 g a.i./ha, damage without safener - damage with safener
[9] = HER dose 2 g a.i./ha + cyprosulfamide 50 g a.i./ha tank-mix
[10] = HER dose 2 g a.i./ha, 0% = no injury, 100% = complete kill

Row | SMILES | Reduction [%] (ZEAMA Abraxas; [3]) | Reduction [Difference] (ZEAMA Abraxas; [3]) | HER effect + SAF (ZEAMA Abraxas; [4]) [%] | HER effect (ZEAMA Abraxas; HER dose 32 g a.i./ha) [%] | Reduction [%] (ZEAMA Abraxas; [5]) | Reduction [Difference] (ZEAMA Abraxas; [5]) | HER effect + SAF (ZEAMA Abraxas; [6]) [%] | HER effect (ZEAMA Abraxas; HER dose 8 g a.i./ha) [%] | Reduction [%] (ZEAMA Sileno [1]; HER dose 8 g a.i./ha) | Reduction [Difference] (ZEAMA Sileno [1]; HER dose 8 g a.i./ha) | HER effect + SAF (crop damage with safener) (ZEAMA Sileno [1]; HER dose 8 g a.i./ha) [%] | HER effect (crop damage, herbicide without safener) (ZEAMA Sileno [1]; HER dose 8 g a.i./ha) [%] | Reduction [%] (ZEAMA Sileno [1]; HER dose 32 g a.i./ha) | Reduction [Difference] (ZEAMA Sileno [1]; HER dose 32 g a.i./ha) | HER effect + SAF (crop damage with safener) (ZEAMA Sileno [1]; HER dose 32 g a.i./ha) [%] | HER effect (crop damage, herbicide without safener) (ZEAMA Sileno [1]; HER dose 32 g a.i./ha) [%] | Reduction [%] (ZEAMA Sileno [2]; [5]) | Reduction [Difference] (ZEAMA Sileno [2]; [5]) | Reduction [%] (ZEAMA Sileno [2]; [3]) | Reduction [Difference] (ZEAMA Sileno [2]; [3]) | other results
1 | CC1(C(=O)NC2C=CC(C(=O)OCCCl)C2)CC(c2cc(F)cc(F)c2)=NO1 (mixture of isomers) [Example 1.47] | 84 | 52 | 10 | 62 | – | – | – | – | – | – | – | – | – | – | – | – | – | – | – | – | –
2 | C=CC1(C(=O)NC2CC=C(C(=O)OC)C2)CC(c2cc(F)cc(F)c2)=NO1 (mixture of isomers) [Example 1.60] | 79 | 74 | 20 | 94 | 69 | 38 | 17 | 55 | 94 | 50 | 3 | 53 | 88 | 57 | 8 | 65 | – | – | – | – | –
3 | C=CC1(C(=O)NC2COC(C(=O)OC)C2)CC(c2cc(C)cc(F)c2)=NO1 (mixture of isomers) [Example 1.71] | 67 | 61 | 30 | 91 | 71 | 41 | 17 | 58 | – | – | – | – | 91 | 29 | 3 | 32 | – | – | – | – | –
4 | CC1(C(=O)NC2COC(C(=O)OCc3cccc(F)c3)C2)CC(c2cc(F)cc(F)c2)=NO1 (mixture of isomers) [Example 1.76] | 26 | 25 | 70 | 95 | 74 | 67 | 23 | 90 | 100 | 22 | 0 | 22 | 74 | 20 | 7 | 27 | – | – | – | – | –
5 | C=CC1(C(=O)NC2COC(C(=O)OCc3ccc(OC)cc3)C2)CC(c2cc(C)cc(F)c2)=NO1 (mixture of isomers) [Example 1.86] | – | – | – | – | 84 | 27 | 5 | 32 | – | – | – | – | – | – | – | – | – | – | – | – | –
6 | CCOC(=O)C1C=CC(NC(=O)C2(C(F)(F)F)CC(c3ccccc3)=NO2)C1 (centres unmarked) [Example 1.9] | – | – | – | – | – | – | – | – | 100 | 78 | 0 | 78 | 100 | 85 | 0 | 85 | 87 | 68 | 59 | 50 | HER effect + SAF (ZEAMA Sileno [2]; [6]): 10%; HER effect (ZEAMA Sileno [2]; HER dose 8 g a.i./ha): 78%; HER effect + SAF (ZEAMA Sileno [2]; [4]): 35%; HER effect (ZEAMA Sileno [2]; HER dose 32 g a.i./ha): 85%
7 | COC(=O)C1C=CC(NC(=O)C2(C(F)(F)F)CC(c3cccc(F)c3)=NO2)C1 (centres unmarked) [Example 1.18] | – | – | – | – | – | – | – | – | 89 | 84 | 10 | 94 | 79 | 77 | 20 | 97 | 66 | 62 | 72 | 70 | HER effect + SAF (ZEAMA Sileno [2]; [6]): 32%; HER effect (ZEAMA Sileno [2]; HER dose 8 g a.i./ha): 94%; HER effect + SAF (ZEAMA Sileno [2]; [4]): 27%; HER effect (ZEAMA Sileno [2]; HER dose 32 g a.i./ha): 97%
8 | C=CC1(C(=O)NC2C=CC(C(=O)O)C2)CC(c2cc(F)cc(F)c2)=NO1 (centres unmarked) [Example 1.58] | 68 | 65 | 30 | 95 | 87 | 54 | 8 | 62 | – | – | – | – | 64 | 45 | 25 | 70 | – | – | – | – | Reduction [%] (ZEAMA Sileno [1]; HER dose 2 g a.i./ha): 100%; Reduction [Difference] (ZEAMA Sileno [1]; HER dose 2 g a.i./ha): 20; HER effect + SAF (crop damage with safener) (ZEAMA Sileno [1]; HER dose 2 g a.i./ha): 0%; HER effect (crop damage, herbicide without safener) (ZEAMA Sileno [1]; HER dose 2 g a.i./ha): 20%
9 | COC(=O)C1=CC(NC(=O)C2(C)CC(c3cc(F)cc(F)c3)=NO2)CC1 (centres unmarked) [Example 1.63] | – | – | – | – | – | – | – | – | 85 | 72 | 13 | 85 | 85 | 75 | 13 | 88 | 73 | 62 | 52 | 46 | Reduction [%] (ZEAMA Sileno [2]; [7]): 87%; Reduction [Difference] (ZEAMA Sileno [2]; [8]): 20; HER effect + SAF (ZEAMA Sileno [2]; [9]): 3%; HER effect (ZEAMA Sileno [2]; [10]): 23%; HER effect + SAF (ZEAMA Sileno [2]; [6]): 23%; HER effect (ZEAMA Sileno [2]; HER dose 8 g a.i./ha): 85%; HER effect + SAF (ZEAMA Sileno [2]; [4]): 42%; HER effect (ZEAMA Sileno [2]; HER dose 32 g a.i./ha): 88%; Reduction [%] (ZEAMA Sileno [1]; HER dose 2 g a.i./ha): 100%; Reduction [Difference] (ZEAMA Sileno [1]; HER dose 2 g a.i./ha): 23; HER effect + SAF (crop damage with safener) (ZEAMA Sileno [1]; HER dose 2 g a.i./ha): 0%; HER effect (crop damage, herbicide without safener) (ZEAMA Sileno [1]; HER dose 2 g a.i./ha): 23%
10 | C=CC1(C(=O)NC2COC(C(=O)OC)C2)CC(c2cc(F)cc(F)c2)=NO1 (centres unmarked) [Example 1.69] | – | – | – | – | – | – | – | – | 82 | 75 | 17 | 92 | 75 | 70 | 23 | 93 | 76 | 70 | 73 | 68 | HER effect + SAF (ZEAMA Sileno [2]; [6]): 22%; HER effect (ZEAMA Sileno [2]; HER dose 8 g a.i./ha): 92%; HER effect + SAF (ZEAMA Sileno [2]; [4]): 25%; HER effect (ZEAMA Sileno [2]; HER dose 32 g a.i./ha): 93%
11 | C=CC1(C(=O)NC2COC(C(=O)OC)C2)CC(c2cc(F)cc(F)c2)=NO1 (centres unmarked) [Example 1.70] | – | – | – | – | – | – | – | – | 77 | 75 | 22 | 97 | 67 | 66 | 32 | 98 | 21 | 20 | 41 | 40 | Reduction [%] (ZEAMA Sileno [2]; [7]): 77%; Reduction [Difference] (ZEAMA Sileno [2]; [8]): 68; HER effect + SAF (ZEAMA Sileno [2]; [9]): 20%; HER effect (ZEAMA Sileno [2]; [10]): 88%; HER effect + SAF (ZEAMA Sileno [2]; [6]): 77%; HER effect (ZEAMA Sileno [2]; HER dose 8 g a.i./ha): 97%; HER effect + SAF (ZEAMA Sileno [2]; [4]): 58%; HER effect (ZEAMA Sileno [2]; HER dose 32 g a.i./ha): 98%; Reduction [%] (ZEAMA Sileno [1]; HER dose 2 g a.i./ha): 80%; Reduction [Difference] (ZEAMA Sileno [1]; HER dose 2 g a.i./ha): 70; HER effect + SAF (crop damage with safener) (ZEAMA Sileno [1]; HER dose 2 g a.i./ha): 18%; HER effect (crop damage, herbicide without safener) (ZEAMA Sileno [1]; HER dose 2 g a.i./ha): 88%
